# Results: US20100092443A1, “NOVEL COMBINATIONS OF NITROGENATED HETEROCYCLIC ANTIBACTERIAL COMPOUNDS WITH OTHER ANTIBACTERIAL COMPOUNDS AND THE USE OF SAME AS DRUGS” (priority 2008, published 2010)
# Where a name gives a salt, the structure may show the parent alone.
# What was measured:
# Format in all cases: cell-based
# K. oxytoca = experiment: MIC, dilutions in liquid medium, alone and combined with NXL105
# C. freundii = experiment: as above
# E. coli = experiment: microbe, parasite or virus in culture
# Description: (§1) In vitro activity, method of dilutions in liquid medium:
# (§2) A series of test 96-well microtiter plates are prepared in which the same quantity of sterile nutritive medium is distributed. […] After 24 h of incubation in a 37° C. oven, growth inhibition is evaluated by transillumination, which makes it possible to determine the minimum inhibitory concentrations (MICS) expressed in μg/ml.
# E. cloacae = experiment: MIC, dilutions in liquid medium, alone and combined with NXL105
# Description: as §1, §2
# K. pneumoniae = experiment: as above
# Description: as §1, §2
# Pseudomonas aeruginosa = experiment: as above
# Description: as §1
# A series of test 96-well microtiter plates are prepared in which the same quantity of sterile nutritive medium is distributed. Increasing quantities of the compound to be studied, namely the antibacterial compound alone and the inventive combination with the compound of formula (I) of example 1, are distributed in each plate in the respective proportions 2:1 and 4:1, and then each plate is inoculated with a bacterial strain of Pseudomonas aeruginosa. After 24 h of incubation in a 37° C. oven, growth inhibition is evaluated by transillumination, which makes it possible to determine the minimum inhibitory concentrations (MICS) expressed in μg/ml.
smiles,measurement,setting,value
"Cn1ncc2c1[C@@H](CN)N1C[C@H]2N(OS(=O)(=O)O)C1=O (relative stereo) [NXL105, Sodium and Trifluoroacetate Salts of trans 8-(aminomethyl)-4,8-dihydro-1-methyl-5-(sulphooxy)-4,7-methano-7H-pyrazolo[3,4-e][1,3]diazepin-6(5H)-one]",MIC,"K. oxytoca; K. oxytoca 1431, TEM-129",32 µg/mL
same,MIC,"K. oxytoca; K. oxytoca 16944, OXY-2, TEM-1",>32 µg/mL
same,MIC,"C. freundii; C. freundii (no alias), AmpC + TEM-1",16 µg/mL
same,MIC,"C. freundii; C. freundii (no alias, table row r121), AmpC",16 µg/mL
same,MIC,"C. freundii; C. freundii (no alias, table row r122), AmpC",32 µg/mL
same,MIC,"C. freundii; C. freundii (no alias, table row r123), AmpC",>32 µg/mL
same,MIC,"C. freundii; C. freundii (no alias, table row r125), AmpC",32 µg/mL
same,MIC,"E. coli; E. coli 2138, KPC-2 + TEM-1",>32 µg/mL
same,MIC,"E. coli; E. coli (no alias), CTX-M-15 + TEM-1 + OXA-1",>32 µg/mL
same,MIC,"E. coli; E. coli (no alias), Cephalosporinase",>32 µg/mL
same,MIC,"E. coli; E. coli (no alias), SHV-4",>32 µg/mL
same,MIC,"E. coli; E. coli (no alias), TEM-3",>32 µg/mL
same,MIC,"E. coli; E. coli IND, VEB-1 + CMY-2",16 µg/mL
same,MIC,"E. coli; E. coli TN06, CTX-M-2 + TEM-1",32 µg/mL
same,MIC,"E. coli; E. coli TN13, CTX-M-14 + CMY-2 + TEM-1",32 µg/mL
same,MIC,"E. coli; E. coli Tunisie clone E4, CTX-M-16 + TEM-1",>32 µg/mL
same,MIC,"E. cloacae; E. cloacae 7506, KPC-2 + TEM-1 + KLUC-2",32 µg/mL
same,MIC,"E. cloacae; E. cloacae (no alias), AmpC",32 µg/mL
same,MIC,"E. cloacae; E. cloacae, AmpC",>32 µg/mL
same,MIC,"K. pneumoniae; K. pneumoniae 26, SHV-5",32 µg/mL
same,MIC,"K. pneumoniae; K. pneumoniae 60, SHV-2 + TEM-2 + PER",32 µg/mL
same,MIC,"K. pneumoniae; K. pneumoniae 157, SHV-5 + TEM-26",>32 µg/mL
same,MIC,"K. pneumoniae; K. pneumoniae 181, SHV-5 + TEM-10",>32 µg/mL
same,MIC,"K. pneumoniae; K. pneumoniae 236, SHV-5 + TEM-10",>32 µg/mL
same,MIC,"K. pneumoniae; K. pneumoniae 238, SHV-2 + TEM-12 + CTX-M-2",>32 µg/mL
same,MIC,"K. pneumoniae; K. pneumoniae 243, SHV-5 + TEM-63",>32 µg/mL
same,MIC,"K. pneumoniae; K. pneumoniae 253, SHV-2 + TEM-12 + CTX-M-2",>32 µg/mL
same,MIC,"K. pneumoniae; K. pneumoniae 427, SHV-1 + TEM-1B + CTX-M-3",>32 µg/mL
same,MIC,"K. pneumoniae; K. pneumoniae 441, SHV-1 + TEM-2 + PER",>32 µg/mL
same,MIC,"K. pneumoniae; K. pneumoniae 444, SHV-5 + TEM-2 + PER",>32 µg/mL
same,MIC,"K. pneumoniae; K. pneumoniae 449, SHV-1 + TEM-2 + PER",32 µg/mL
same,MIC,"K. pneumoniae; K. pneumoniae 465, TEM-1B + CTX-M-2",>32 µg/mL
same,MIC,"K. pneumoniae; K. pneumoniae 1734, FOX-3 + TEM-1",>32 µg/mL
same,MIC,"K. pneumoniae; K. pneumoniae 9701, CMY-4 + TEM-1",>32 µg/mL
same,MIC,"K. pneumoniae; K. pneumoniae ATCC 700603, SHV-18",>32 µg/mL
same,MIC,"K. pneumoniae; K. pneumoniae CL5761, KPC-3",>32 µg/mL
same,MIC,"K. pneumoniae; K. pneumoniae CL5762, KPC-3",>32 µg/mL
same,MIC,"K. pneumoniae; K. pneumoniae CL5763, KPC-3",>32 µg/mL
same,MIC,"K. pneumoniae; K. pneumoniae KOL, MOX-2 + SHV-5 + TEM-1",>32 µg/mL
same,MIC,"K. pneumoniae; K. pneumoniae KP04, CTX-M-14",>32 µg/mL
same,MIC,"K. pneumoniae; K. pneumoniae Patient 1BHR, VIM-4 + CTX-M-15 = CMY-4 + TEM-1",16 µg/mL
same,MIC,"K. pneumoniae; K. pneumoniae Patient F, VIM-1 + SHV-5",>32 µg/mL
same,MIC,"K. pneumoniae; K. pneumoniae SLK54, ACC-1 + TEM-1",>32 µg/mL
same,MIC,"K. pneumoniae; K. pneumoniae TN58467, DHA-1 + SHV-2a + TEM-1",>32 µg/mL
same,MIC,"K. pneumoniae; K. pneumoniae Tunisie clone K1, CTX-M-16 + OXA-1",>32 µg/mL
same,MIC,"K. pneumoniae; K. pneumoniae Tunisie clone K4, CTX-M-15 + TEM-1 + OXA-1",16 µg/mL
same,MIC,"K. pneumoniae; K. pneumoniae VA8, KPC-3",>32 µg/mL
same,MIC,"K. pneumoniae; K. pneumoniae VAKP, KPC-2",>32 µg/mL
same,MIC,"K. pneumoniae; K. pneumoniae YC, KPC-2",>32 µg/mL
same,MIC,Pseudomonas aeruginosa; P. aeruginosa 391HG2,1.000 µg/mL
same,MIC,Pseudomonas aeruginosa; P. aeruginosa 391HG21,0.500 µg/mL
same,MIC,Pseudomonas aeruginosa; P. aeruginosa 391HG38,32.000 µg/mL
same,MIC,Pseudomonas aeruginosa; P. aeruginosa 391HG39,4.000 µg/mL
same,MIC,Pseudomonas aeruginosa; P. aeruginosa 391HG58,1.000 µg/mL
same,MIC,Pseudomonas aeruginosa; P. aeruginosa 391HG118,0.125 µg/mL
same,MIC,Pseudomonas aeruginosa; P. aeruginosa 391HG123,>32 µg/mL
same,MIC,Pseudomonas aeruginosa; P. aeruginosa 391HG158,32.000 µg/mL
same,MIC,Pseudomonas aeruginosa; P. aeruginosa 391HG271,32.000 µg/mL
same,MIC,Pseudomonas aeruginosa; P. aeruginosa 391HG329,2.000 µg/mL
same,MIC,Pseudomonas aeruginosa; P. aeruginosa 391K767,1.000 µg/mL
same,MIC,Pseudomonas aeruginosa; P. aeruginosa 391K1455,2.000 µg/mL
same,MIC,Pseudomonas aeruginosa; P. aeruginosa 391K1523,2.000 µg/mL
same,MIC,Pseudomonas aeruginosa; P. aeruginosa 391K1525,4.000 µg/mL
same,MIC,Pseudomonas aeruginosa; P. aeruginosa 391K1536,2.000 µg/mL
same,MIC,Pseudomonas aeruginosa; P. aeruginosa 391K2376,2.000 µg/mL
same,MIC,Pseudomonas aeruginosa; P. aeruginosa 391K2379,4.000 µg/mL
same,MIC,Pseudomonas aeruginosa; P. aeruginosa 391K2415,2.000 µg/mL
same,MIC,Pseudomonas aeruginosa; P. aeruginosa 391KB9,0.250 µg/mL
same,MIC,Pseudomonas aeruginosa; P. aeruginosa 391KB14,1.000 µg/mL
same,MIC,Pseudomonas aeruginosa; P. aeruginosa 391KB21,2.000 µg/mL
same,MIC,Pseudomonas aeruginosa; P. aeruginosa 391KB33,0.500 µg/mL
same,MIC,Pseudomonas aeruginosa; P. aeruginosa 391KB38,1.000 µg/mL
same,MIC,Pseudomonas aeruginosa; P. aeruginosa 391KB62,4.000 µg/mL
same,MIC,Pseudomonas aeruginosa; P. aeruginosa 391KB68,0.500 µg/mL
same,MIC,Pseudomonas aeruginosa; P. aeruginosa 391KB90,8.000 µg/mL
same,MIC,Pseudomonas aeruginosa; P. aeruginosa 391KB91,0.500 µg/mL
same,MIC,Pseudomonas aeruginosa; P. aeruginosa 391KB99,0.500 µg/mL
same,MIC,Pseudomonas aeruginosa; P. aeruginosa 391KB103,0.500 µg/mL
same,MIC,Pseudomonas aeruginosa; P. aeruginosa 391KB105,1.000 µg/mL
same,MIC,Pseudomonas aeruginosa; P. aeruginosa 391KB106,2.000 µg/mL
same,MIC,Pseudomonas aeruginosa; P. aeruginosa 391KB107,1.000 µg/mL
same,MIC,Pseudomonas aeruginosa; P. aeruginosa 391KB114,4.000 µg/mL
same,MIC,Pseudomonas aeruginosa; P. aeruginosa 391KB127,0.500 µg/mL
same,MIC,Pseudomonas aeruginosa; P. aeruginosa 391KB135,1.000 µg/mL
same,MIC,Pseudomonas aeruginosa; P. aeruginosa 391KB136,0.500 µg/mL
same,MIC,Pseudomonas aeruginosa; P. aeruginosa 391KB137,0.500 µg/mL
same,MIC,Pseudomonas aeruginosa; P. aeruginosa 391KB138,0.500 µg/mL
same,MIC,Pseudomonas aeruginosa; P. aeruginosa 391KB139,2.000 µg/mL
same,MIC,Pseudomonas aeruginosa; P. aeruginosa 391KB140,2.000 µg/mL
same,MIC,Pseudomonas aeruginosa; P. aeruginosa 391KB141,4.000 µg/mL
same,MIC,Pseudomonas aeruginosa; P. aeruginosa 391KB142,1.000 µg/mL
same,MIC,Pseudomonas aeruginosa; P. aeruginosa 391KB143,0.500 µg/mL
same,MIC,Pseudomonas aeruginosa; P. aeruginosa 391KB144,16.000 µg/mL
same,MIC,Pseudomonas aeruginosa; P. aeruginosa 391QBR2,>32 µg/mL
same,MIC,Pseudomonas aeruginosa; P. aeruginosa 391QBR3,2.000 µg/mL
same,MIC,Pseudomonas aeruginosa; P. aeruginosa 391QBR4,2.000 µg/mL
same,MIC,Pseudomonas aeruginosa; P. aeruginosa 391QBR5,1.000 µg/mL
same,MIC,Pseudomonas aeruginosa; P. aeruginosa 391QBR7,2.000 µg/mL
same,MIC,Pseudomonas aeruginosa; P. aeruginosa 391QBR8,2.000 µg/mL
same,MIC,Pseudomonas aeruginosa; P. aeruginosa 391QBR9,2.000 µg/mL
same,MIC,Pseudomonas aeruginosa; P. aeruginosa 391QBR10,4.000 µg/mL
same,MIC,Pseudomonas aeruginosa; P. aeruginosa ATCC 27853,0.060 µg/mL
same,MIC,Pseudomonas aeruginosa; P. aeruginosa C3719,>32 µg/mL
same,MIC,Pseudomonas aeruginosa; P. aeruginosa PA2192,0.125 µg/mL
